According to the NIST ThermoML archive (doi:10.1016/j.tca.2019.02.008):
± gives the expanded uncertainty stated by the source.

Columns and labels:
[1] = for vapor or sublimation pressure: Transpiration method; for Triple point temperature: DSC
[2] = Molar enthalpy of transition or fusion; conditions: DSC

Br.CN [methylammonium bromide]
vapor or sublimation pressure ([1]; 433 K, Crystal 2): 0.0057 ± 0.0006 kPa
vapor or sublimation pressure ([1]; 444 K, Crystal 2): 0.0104 ± 0.0011 kPa
vapor or sublimation pressure ([1]; 454 K, Crystal 2): 0.0202 ± 0.0022 kPa
vapor or sublimation pressure ([1]; 463 K, Crystal 2): 0.0348 ± 0.0037 kPa
vapor or sublimation pressure ([1]; 468 K, Crystal 2): 0.0413 ± 0.0044 kPa
vapor or sublimation pressure ([1]; 473 K, Crystal 2): 0.0576 ± 0.0061 kPa
vapor or sublimation pressure ([1]; 488 K, Crystal 1): 0.1234 ± 0.013 kPa
vapor or sublimation pressure ([1]; 493 K, Crystal 1): 0.1563 ± 0.017 kPa
vapor or sublimation pressure ([1]; 498 K, Crystal 1): 0.1897 ± 0.02 kPa
vapor or sublimation pressure ([1]; 503 K, Crystal 1): 0.2394 ± 0.025 kPa
Triple point temperature ([1]; Crystal 1): 520.5 ± 1 K
Triple point temperature ([1]; Crystal 2): 480.8 ± 1.1 K
Triple point temperature ([1]; Crystal 3): 392.1 ± 0.9 K
Molar enthalpy of transition or fusion ([2]; Crystal 2): 0.868 ± 0.0645 kcal/mol
Molar enthalpy of transition or fusion ([2]; Crystal 3): 0.351 ± 0.0335 kcal/mol
